The target in assay [1] is T1, Mitogen-activated protein kinase 12 (Homo sapiens) (UniProt P53778).
T1 sequence (whole entry): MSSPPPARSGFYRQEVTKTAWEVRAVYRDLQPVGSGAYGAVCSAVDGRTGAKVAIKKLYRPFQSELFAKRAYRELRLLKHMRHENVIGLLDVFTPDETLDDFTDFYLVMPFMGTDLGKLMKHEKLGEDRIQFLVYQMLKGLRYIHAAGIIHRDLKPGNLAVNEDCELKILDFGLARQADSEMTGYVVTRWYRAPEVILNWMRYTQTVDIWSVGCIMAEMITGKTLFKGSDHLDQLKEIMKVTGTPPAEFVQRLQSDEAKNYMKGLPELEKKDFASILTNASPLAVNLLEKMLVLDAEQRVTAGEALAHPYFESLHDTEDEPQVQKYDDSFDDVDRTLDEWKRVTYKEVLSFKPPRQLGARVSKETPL
Kind of assay: Inhibition of human recombinant p38gamma at 15 nM in presence of ATP by radiometric assay relative to control.

In assay [2] the target is T2, Serine/threonine-protein kinase TBK1 (Homo sapiens) (UniProt Q9UHD2).
T2 sequence (whole entry): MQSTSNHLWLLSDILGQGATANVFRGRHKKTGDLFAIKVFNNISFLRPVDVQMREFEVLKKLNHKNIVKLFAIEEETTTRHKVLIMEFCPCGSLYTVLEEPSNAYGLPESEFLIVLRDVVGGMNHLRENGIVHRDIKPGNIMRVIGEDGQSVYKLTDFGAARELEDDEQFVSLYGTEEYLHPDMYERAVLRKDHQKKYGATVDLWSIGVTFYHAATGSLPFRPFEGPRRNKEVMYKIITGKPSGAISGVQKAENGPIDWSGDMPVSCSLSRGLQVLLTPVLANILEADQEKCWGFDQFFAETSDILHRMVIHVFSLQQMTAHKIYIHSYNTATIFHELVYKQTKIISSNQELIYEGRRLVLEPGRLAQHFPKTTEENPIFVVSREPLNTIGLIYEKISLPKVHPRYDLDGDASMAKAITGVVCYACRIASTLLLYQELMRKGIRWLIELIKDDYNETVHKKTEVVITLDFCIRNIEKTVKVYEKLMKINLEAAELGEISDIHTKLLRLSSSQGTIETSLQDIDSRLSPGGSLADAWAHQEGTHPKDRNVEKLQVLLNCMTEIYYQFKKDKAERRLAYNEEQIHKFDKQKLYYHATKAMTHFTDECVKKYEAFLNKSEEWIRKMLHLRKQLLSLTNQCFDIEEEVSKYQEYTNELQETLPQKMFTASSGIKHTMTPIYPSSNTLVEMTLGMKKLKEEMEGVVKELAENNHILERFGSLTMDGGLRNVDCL
Kind of assay: Inhibition of human recombinant TBK1 at 15 nM in presence of ATP by radiometric assay relative to control.

Assay [3] addresses Serine/threonine-protein kinase 26 (Homo sapiens) (UniProt Q9P289). Kind of assay: Inhibition of human recombinant MST4 at 15 nM related to control ULK1.
Assay [4] concerns the target Wee1-like protein kinase 2 (Homo sapiens) (UniProt P0C1S8). Kind of assay: Inhibition of human recombinant Wee1B at 15 nM related to control ULK1.
The target of assay [5] is T3, Inhibitor of nuclear factor kappa-B kinase subunit epsilon (Homo sapiens) (UniProt Q14164).
T3 sequence (whole entry): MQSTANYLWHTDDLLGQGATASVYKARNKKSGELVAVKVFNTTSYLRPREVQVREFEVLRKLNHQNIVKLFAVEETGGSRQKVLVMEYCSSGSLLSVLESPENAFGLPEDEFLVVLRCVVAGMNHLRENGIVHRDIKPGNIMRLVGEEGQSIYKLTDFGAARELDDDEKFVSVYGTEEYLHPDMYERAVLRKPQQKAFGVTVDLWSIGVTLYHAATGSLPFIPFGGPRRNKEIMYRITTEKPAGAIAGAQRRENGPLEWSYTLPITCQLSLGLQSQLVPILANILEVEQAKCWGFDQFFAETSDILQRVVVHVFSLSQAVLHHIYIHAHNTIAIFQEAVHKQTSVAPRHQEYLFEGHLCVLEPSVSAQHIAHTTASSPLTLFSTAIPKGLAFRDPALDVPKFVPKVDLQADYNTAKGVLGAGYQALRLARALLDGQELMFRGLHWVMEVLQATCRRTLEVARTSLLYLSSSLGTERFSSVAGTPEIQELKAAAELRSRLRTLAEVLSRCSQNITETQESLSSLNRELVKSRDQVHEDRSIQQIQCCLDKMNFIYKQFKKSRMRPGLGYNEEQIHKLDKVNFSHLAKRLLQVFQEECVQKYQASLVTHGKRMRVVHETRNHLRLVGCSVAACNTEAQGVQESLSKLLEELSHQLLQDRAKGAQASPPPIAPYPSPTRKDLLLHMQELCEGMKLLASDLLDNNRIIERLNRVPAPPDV
Kind of assay: Inhibition of human recombinant IKKe at 500 nM related to control ULK1.

Inhibition and fold change (FC) data for 2 compounds are collected here from ChEMBL document CHEMBL5653631, “A Potent and Selective ULK1 Inhibitor Suppresses Autophagy and Sensitizes Cancer Cells to Nutrient Stress” (iScience, 2018).

Serine/threonine-protein kinase 26 (Homo sapiens), sequence (Q9P289 2-416 limits assumed): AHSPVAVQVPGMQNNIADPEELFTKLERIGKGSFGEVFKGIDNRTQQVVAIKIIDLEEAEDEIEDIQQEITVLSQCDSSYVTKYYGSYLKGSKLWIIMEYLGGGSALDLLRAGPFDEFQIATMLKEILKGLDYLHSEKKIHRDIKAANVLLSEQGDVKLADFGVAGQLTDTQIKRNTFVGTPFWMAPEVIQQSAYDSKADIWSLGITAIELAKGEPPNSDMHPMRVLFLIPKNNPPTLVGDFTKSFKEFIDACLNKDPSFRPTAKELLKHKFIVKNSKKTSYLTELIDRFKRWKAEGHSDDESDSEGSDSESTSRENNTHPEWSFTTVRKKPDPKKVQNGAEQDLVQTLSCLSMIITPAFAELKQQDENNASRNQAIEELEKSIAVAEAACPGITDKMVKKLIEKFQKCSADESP
Wee1-like protein kinase 2 (Homo sapiens), sequence (P0C1S8 whole entry, looked up): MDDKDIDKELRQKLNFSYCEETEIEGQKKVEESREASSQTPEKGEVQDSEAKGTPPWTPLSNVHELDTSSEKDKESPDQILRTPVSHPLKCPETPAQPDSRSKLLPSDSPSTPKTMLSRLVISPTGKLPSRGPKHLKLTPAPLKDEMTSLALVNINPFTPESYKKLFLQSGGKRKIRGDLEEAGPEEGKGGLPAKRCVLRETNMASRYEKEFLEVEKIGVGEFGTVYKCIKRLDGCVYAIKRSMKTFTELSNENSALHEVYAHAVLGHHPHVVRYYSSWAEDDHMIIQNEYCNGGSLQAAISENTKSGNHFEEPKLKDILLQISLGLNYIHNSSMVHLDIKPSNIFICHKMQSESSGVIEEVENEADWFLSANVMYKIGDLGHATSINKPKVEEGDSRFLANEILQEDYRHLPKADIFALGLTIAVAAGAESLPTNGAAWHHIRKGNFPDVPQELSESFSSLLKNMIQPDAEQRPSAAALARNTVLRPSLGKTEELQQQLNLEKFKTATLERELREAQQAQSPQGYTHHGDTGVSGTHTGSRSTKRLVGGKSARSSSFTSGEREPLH

Consider `CC(C)[C@H](NC(=O)c1cc(-c2cnn3cc(-c4ccc(OCCN5CCCCC5)cc4)cnc23)cs1)C(F)(F)F`, for which the inhibition worked out at 5% in assay [1] and 79% in assay [2]. The fold change (FC) was determined as 0 in assay [3] and 0.13 in assay [4].

Regarding `CNC(=O)c1ccccc1Oc1nc(Nc2cc(OC)c(OC)c(OC)c2)ncc1Br`, in assay [5], the fold change (FC) is 0.
